1 compound from article PMC4206343, “A Novel Aminothiazole KY-05009 with Potential to Inhibit Traf2- and Nck-Interacting Kinase (TNIK) Attenuates TGF-β1-Mediated Epithelial-to-Mesenchymal Transition in Human Lung Adenocarcinoma A549 Cells” (PLoS ONE, 2014) can be followed below.

This experiment deals with Traf2- and Nck-interacting kinase (TNIK) (Homo sapiens, UniProt Q9UKE5). Description: ATP competition binding assay (KdELECT, KINOMEscan), triplicate 11-point dose-response curves.

The term Ki denotes the equilibrium dissociation constant of an inhibitor or competing ligand from its target. A lower Ki goes with higher affinity.

The structures appear in SMILES notation.

Traf2- and Nck-interacting kinase (TNIK), sequence (Q9UKE5 whole entry): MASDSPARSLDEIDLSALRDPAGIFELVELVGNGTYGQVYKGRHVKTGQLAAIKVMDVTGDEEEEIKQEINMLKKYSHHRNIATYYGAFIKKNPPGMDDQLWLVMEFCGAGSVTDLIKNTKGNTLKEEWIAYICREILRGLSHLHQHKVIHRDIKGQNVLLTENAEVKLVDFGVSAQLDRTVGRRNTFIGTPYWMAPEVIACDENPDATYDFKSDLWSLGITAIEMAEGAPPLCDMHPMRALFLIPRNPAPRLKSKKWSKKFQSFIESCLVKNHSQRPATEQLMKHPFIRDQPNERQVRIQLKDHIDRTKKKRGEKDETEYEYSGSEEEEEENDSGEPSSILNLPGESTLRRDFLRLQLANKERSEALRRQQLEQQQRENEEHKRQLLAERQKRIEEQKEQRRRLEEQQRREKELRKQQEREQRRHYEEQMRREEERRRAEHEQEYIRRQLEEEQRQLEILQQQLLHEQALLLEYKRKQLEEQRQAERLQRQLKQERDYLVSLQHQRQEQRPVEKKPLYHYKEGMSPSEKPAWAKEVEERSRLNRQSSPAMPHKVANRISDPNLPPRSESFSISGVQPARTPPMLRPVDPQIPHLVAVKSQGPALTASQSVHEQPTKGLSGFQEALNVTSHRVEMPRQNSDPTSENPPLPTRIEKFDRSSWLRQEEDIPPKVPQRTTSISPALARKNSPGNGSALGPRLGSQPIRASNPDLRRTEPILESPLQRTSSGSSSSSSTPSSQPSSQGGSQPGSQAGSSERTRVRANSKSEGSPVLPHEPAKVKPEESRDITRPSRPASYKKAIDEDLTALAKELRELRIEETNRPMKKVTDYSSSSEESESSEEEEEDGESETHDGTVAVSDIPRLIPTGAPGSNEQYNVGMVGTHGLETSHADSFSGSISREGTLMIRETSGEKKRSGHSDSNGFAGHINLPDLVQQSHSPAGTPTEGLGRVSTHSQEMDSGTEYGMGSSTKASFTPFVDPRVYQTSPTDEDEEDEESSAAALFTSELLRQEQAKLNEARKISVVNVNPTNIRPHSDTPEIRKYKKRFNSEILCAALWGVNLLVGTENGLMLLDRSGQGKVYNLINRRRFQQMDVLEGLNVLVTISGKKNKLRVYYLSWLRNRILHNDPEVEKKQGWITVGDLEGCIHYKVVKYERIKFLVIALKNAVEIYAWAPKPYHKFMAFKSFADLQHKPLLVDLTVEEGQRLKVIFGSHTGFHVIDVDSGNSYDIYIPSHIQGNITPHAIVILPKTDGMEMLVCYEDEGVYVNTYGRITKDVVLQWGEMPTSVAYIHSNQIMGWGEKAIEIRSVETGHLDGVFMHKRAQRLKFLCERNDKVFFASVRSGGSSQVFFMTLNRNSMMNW

In turn, `Cc1ccc(C(=O)Nc2sc(Nc3ccccc3)nc2C(N)=O)cc1` [KY-05009, 5-(4-methylbenzamido)-2-(phenylamino)thiazole-4-carboxamide] had a Ki of 100 nM.
